# In patent publication US4622293A, “Iodothyronine immunoassays employing HMS as TBP blocking agent” (Miles Laboratories, Inc., priority 1983, dated 1986):
# What was measured:
# serum proteins = test: Effect of pH on the dissociation of iodothyronine from serum proteins by HMS; type: binding; conditions: for % Dissociated: 1.0 mM HMS in MIX solution
# Procedure: Assays were performed in 3 ml polystyrene test tubes in duplicate. A solution (designated "MIX") was prepared containing 27 mL of 0.1 M sodium phosphate, at the stated pH, 73 mL of 21% polyethyleneglycol, 1.0 mM HMS, and 10 micrograms (μg) (40 μL) I-125-thyroxine for each 100 mL. Assay solutions are made up by addition of 50 μL of a serum sample, 0.1 mL of anti(thyroxine) antiserum diluted in 0.1 M sodium phosphate (at the given pH) and 1.0 mL of the MIX solution. Assays are included for maximum binding of label and nonspecific binding.
# [1] = system: human serum proteins (thyroxine binding proteins, TBP); test: Dissociation of 125I-thyroxine from human serum proteins by HMS (Sephadex column); conditions: for Percent Dissociated in 5 Minutes / Percent Dissociated in 30 Minutes: pH 6.0, room temperature
# Procedure: Radioactive iodine-labeled thyroxine (^125 I-thyroxine obtained from New England Nuclear, Boston, MA USA) was equilibrated with 3.5 milliliter (mL) of normal human serum for 48 hours at 4° C. Aliquots of this serum [50 microliters (μL)] were added to 450 μL of 0.1 molar (M) sodium phosphate, pH 6.0, containing various concentrations of HMS to give the final concentrations given in Table 1. After 5 or 30 minutes of incubation at room temperature, a 500 μL aliquot was applied to a Sephadex column from a Seralute® thyroxine assay kit (Miles Laboratories, Inc., Ames Division, Elkhart, IN, USA), which has been equilibrated with 0.1 M sodium phosphate, pH 6.0. The total radioactivity applied to the columns was measured and the undissociated material was washed through the column. The columns were counted to determine the percentage of thyroxine dissociated from the serum proteins.
# [2] = Water solubility (statement); type: physicochemical
# apo(glucose oxidase) = apo(glucose oxidase) (Aspergillus niger, UniProt P13006); test: Effect of HMS on the activation of apo(glucose oxidase) by an FAD-labeled thyroxine conjugate; type: biochemical; conditions: 37° C, pH 6.5, five minute incubation, read-out: % Activity (absorbance at 520 nm as percentage of that with no HMS)
# Sequence of apo(glucose oxidase) (P13006 17-605): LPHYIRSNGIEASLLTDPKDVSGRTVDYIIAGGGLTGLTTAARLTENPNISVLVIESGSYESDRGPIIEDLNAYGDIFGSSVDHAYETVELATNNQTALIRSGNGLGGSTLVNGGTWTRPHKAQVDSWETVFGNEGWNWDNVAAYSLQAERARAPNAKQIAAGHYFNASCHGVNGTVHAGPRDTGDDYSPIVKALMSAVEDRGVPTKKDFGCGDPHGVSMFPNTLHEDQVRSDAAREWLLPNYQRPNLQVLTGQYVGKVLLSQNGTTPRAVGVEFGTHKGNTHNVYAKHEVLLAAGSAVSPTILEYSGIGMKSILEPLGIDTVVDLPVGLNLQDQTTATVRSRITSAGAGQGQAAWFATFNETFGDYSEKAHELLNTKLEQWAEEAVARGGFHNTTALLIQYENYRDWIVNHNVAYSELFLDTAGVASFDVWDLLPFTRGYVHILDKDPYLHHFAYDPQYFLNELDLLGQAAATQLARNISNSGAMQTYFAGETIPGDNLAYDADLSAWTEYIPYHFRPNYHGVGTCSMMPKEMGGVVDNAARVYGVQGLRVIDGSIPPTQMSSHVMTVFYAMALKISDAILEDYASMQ
# Procedure: The activation of apoglucose oxidase was set up with different concentrations of HMS and performed at 37° C. Assays containing 50 mM sodium phosphate, pH 6.5, 200 mM glucose, 2.0 mM sodium dichlorohydroxybenzene sulfonate (DHSA), 25 μg/mL peroxidase, various concentrations of HMS and 2.5 nM final concentration of a FAD-thyroxine conjugate (see U.S. Pat. No. 4,213,893) were started by adding apo(glucose oxidase), 4-aminoantipyrine, and anti(glucose oxidase) at final concentrations of 125 nM, 400 μM, and 8 μL/mL respectively. The absorbance at 520 nm was recorded after a five minute incubation. The data are presented in Table 3 as a percentage of the absorbance recorded when no HMS is present.
smiles,measurement,setting,value
"COc1cc(O)c(C(=O)c2ccccc2)cc1S(=O)(=O)O [HMS, 2-hydroxy-4-methoxybenzophenone-5-sulfonic acid]",% Dissociated,serum proteins; pH 6.0,73%
same,% Dissociated,serum proteins; pH 6.5,73%
same,% Dissociated,serum proteins; pH 7.0,69%
same,% Dissociated,serum proteins; pH 7.5,72%
same,Effect of pH on the efficiency of dissociation,serum proteins; pH range 6.0-7.5,essentially no effect
same,Percent Dissociated in 5 Minutes,[1]; HMS 1 mM,65%
same,Percent Dissociated in 30 Minutes,[1]; HMS 1 mM,73%
same,Percent Dissociated in 5 Minutes,[1]; HMS 2 mM,74%
same,Percent Dissociated in 30 Minutes,[1]; HMS 2 mM,84%
same,Percent Dissociated in 5 Minutes,[1]; HMS 4 mM,91%
same,Percent Dissociated in 30 Minutes,[1]; HMS 4 mM,94%
same,Percent Dissociated in 5 Minutes,[1]; HMS 6 mM,93%
same,Percent Dissociated in 30 Minutes,[1]; HMS 6 mM,95%
same,Dissociation of TBP-bound iodothyronine,[1]; concentration 4 mM,over 90%
same,Dissociation of TBP-bound iodothyronine,"[1]; reaction mixture concentration 1 mM, in a few minutes",over 50%
same,Water solubility,[2],highly water soluble
same,activity at 50 µM,apo(glucose oxidase); HMS 0.05 mM,100%
same,activity at 100 µM,apo(glucose oxidase); HMS 0.10 mM,100%
same,activity at 500 µM,apo(glucose oxidase); HMS 0.50 mM,99%
same,activity at 1000 µM,apo(glucose oxidase); HMS 1.00 mM,97%
same,activity at 5000 µM,apo(glucose oxidase); HMS 5.00 mM,86%
same,activity at 10000 µM,apo(glucose oxidase); HMS 10.00 mM,72%
